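Dose response: 5 concentrations. Exposure: 48 h. Format: 96-well plates. Endpoint: linear interpolation; highest concentration if not reached. Here, GI50 denotes the concentration required for 50% inhibition of growth.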 Calls of active or inactive are those of the source. Rule as the data show it: active = GI50 up to about 1.1 µM and inactive = higher. A value given as a limit tells only on which side of the number the result lay.

Among the test systems are OVCAR-8; UACC-62; M14; SK-OV-3; SR; UO-31; OVCAR-4; OVCAR-3; KM-20L2; LOX IMVI; TK-10; UACC-257; HCT-15; SW-620; HL-60; BT-549; MDA-MB-435; MDA-N; DU-145; NCI/ADR-RES.
Holding throughout (test): inhibition of tumour cell growth, NCI panel, 48 h

In the case of `COC(=O)N/N=C/C(=C/Nc1ccccc1)[N+](=O)[O-]`, the GI50 in the assay with OVCAR-8 was > 100 µM (inactive); with UACC-62, 46.2 µM (inactive); in the assay on M14, > 100 µM (inactive); in the assay on SK-OV-3, > 100 µM (inactive); with SR it was > 100 µM (inactive); with UO-31, > 100 µM (inactive). The GI50 in the assay on OVCAR-4, in the assay with OVCAR-3, with KM-20L2, with LOX IMVI, with TK-10 and with UACC-257 was > 100 µM (inactive) throughout. The GI50 was 59 µM with HCT-15, > 100 µM (inactive) in the assay with SW-620 and > 100 µM (inactive) in the assay with HL-60.
`Nc1ncnc2c1nc(Cl)n2[C@@H]1O[C@@H]2COP(=O)(O)O[C@H]2[C@H]1O` [TOCLADESINE]: the GI50 in the assay on OVCAR-8 is 5.42 µM (inactive); in the assay with UACC-62 it was 15.7 µM (inactive); in the assay with BT-549, 5.69 µM (inactive); with M14, 8.02 µM (inactive); in the assay on SK-OV-3, 10.6 µM (inactive); in the assay with SR it was 4.7 µM (inactive). The GI50 was 16.4 µM (inactive) in the assay on UO-31; 5.41 µM (inactive) in the assay on MDA-MB-435; 16.6 µM (inactive) in the assay on OVCAR-4; 10.9 µM (inactive) with MDA-N; 44.9 µM (inactive) in the assay with OVCAR-3; 13.5 µM (inactive) in the assay with KM-20L2. Further, the GI50 was 2.7 µM (inactive) in the assay on LOX IMVI; 12.5 µM (inactive) with DU-145; 15.1 µM (inactive) in the assay with TK-10; 42.6 µM (inactive) in the assay with UACC-257; 6.7 µM in the assay with HCT-15; 12.1 µM (inactive) in the assay on SW-620. In addition, the GI50 was 6.67 µM (inactive) with NCI/ADR-RES and 3.61 µM (inactive) in the assay on HL-60.
Regarding `N#C[C-](C#N)[n+]1ccc(Cl)cc1`, the GI50 in the assay on OVCAR-8 was 17.1 µM (inactive); in the assay on UACC-62, 15.9 µM (inactive); with M14, 17 µM (inactive); with SK-OV-3 it was 34 µM (inactive); in the assay on SR it was 14.4 µM (inactive); with UO-31, 22.8 µM (inactive). Further, the GI50 was 24.9 µM (inactive) in the assay with OVCAR-4; 17.7 µM (inactive) in the assay with OVCAR-3; 24.2 µM (inactive) in the assay on KM-20L2; 11.2 µM (inactive) with LOX IMVI; 22.3 µM (inactive) with TK-10; 15.2 µM (inactive) in the assay on UACC-257. The figures for the GI50 in the assay on HCT-15, with SW-620 and in the assay with HL-60 were 14.4 µM, 10.9 µM (inactive) and 4.27 µM (inactive), respectively.
For `COc1cccc2c1C(=O)c1c(O)c3c(c(O)c1C2=O)CC(O)(C(C)=O)CC3OC1CC([N+](C)(C)C)C(O)C(C)O1` (configuration not stated), the GI50 in the assay with OVCAR-8 is 54.3 µM (inactive); in the assay with UACC-62, > 100 µM (inactive); in the assay on M14 it was > 100 µM (inactive); in the assay with SK-OV-3, > 100 µM (inactive); in the assay with SR, 5.24 µM (inactive); in the assay on UO-31 it was > 100 µM (inactive). The GI50 was > 100 µM (inactive) with OVCAR-4; > 100 µM (inactive) with OVCAR-3; > 100 µM (inactive) in the assay with KM-20L2; 51.9 µM (inactive) in the assay with LOX IMVI; > 100 µM (inactive) with TK-10; > 100 µM (inactive) with UACC-257. The GI50 with HCT-15 was more than 100 µM; in the assay on SW-620, 56.1 µM (inactive); in the assay with HL-60, 24 µM (inactive).
With `CC(=O)NC1C(OCc2ccccc2)OC(COC(=O)CCCCCCCCCCNc2ccc([N+](=O)[O-])c3[nH]c4ccccc4c(=O)c23)C(O)C1OC(C)C(=O)NC(C)C(=O)NC(CCC(N)=O)C(=O)OCc1ccccc1` (configuration not stated), the GI50 in the assay on OVCAR-8, in the assay on UACC-62, in the assay on M14, in the assay on SK-OV-3, in the assay with SR and in the assay on UO-31 was > 100 µM (inactive) each time. Further, the GI50 in the assay on OVCAR-4, in the assay with OVCAR-3, with KM-20L2, in the assay with LOX IMVI, in the assay on TK-10 and in the assay with UACC-257 was > 100 µM (inactive) throughout. The values for the GI50 with HCT-15, in the assay with SW-620 and with HL-60 were more than 100 µM, > 100 µM (inactive) and > 100 µM (inactive), respectively.
Turning to `CCN(CC)c1ccc(C(=C2C=CC(=[N+](CC)CC)C=C2)c2ccc(N(CC)CC)cc2)cc1`, the GI50 was 0.0391 µM (active) in the assay on OVCAR-8; 0.219 µM (active) in the assay with UACC-62; 0.0332 µM (active) with BT-549; 0.175 µM (active) in the assay with M14; 0.0773 µM (active) with SK-OV-3; 0.0843 µM (active) with SR. Moreover, the GI50 in the assay on UO-31 was 0.212 µM (active); in the assay on MDA-MB-435, 0.111 µM (active); in the assay on OVCAR-4 it was 0.234 µM (active); in the assay on MDA-N, 0.103 µM (active); in the assay with OVCAR-3, 0.0393 µM (active); in the assay on KM-20L2 it was 0.184 µM (active). The GI50 in the assay on LOX IMVI is 0.0541 µM (active); in the assay with DU-145, 0.0708 µM (active); in the assay with TK-10, 0.214 µM (active); with UACC-257, 0.132 µM (active); in the assay on HCT-15 it was 0.194 µM; with SW-620, 0.0711 µM (active). The GI50 with NCI/ADR-RES was 0.521 µM (active); in the assay on HL-60, 0.0303 µM (active).
As for `CCN(CC)CCCNc1ncc(C)c2c1c1ccc3c(O)cccc3c1n2C`, the GI50 is 1.43 µM (inactive) in the assay on OVCAR-8; 18 µM (inactive) in the assay on UACC-62; 1.89 µM (inactive) in the assay with BT-549; 4.15 µM (inactive) in the assay with M14; 4.9 µM (inactive) in the assay with SK-OV-3; 0.282 µM (active) in the assay with SR. Also, the GI50 in the assay on UO-31 is 7.89 µM (inactive); in the assay on MDA-MB-435 it was 8.07 µM (inactive); with OVCAR-4, 1.66 µM (inactive); in the assay with MDA-N, 1.65 µM (inactive); with OVCAR-3 it was 3.87 µM (inactive); with KM-20L2 it was 3.07 µM (inactive). For the same compound, the GI50 is 1.29 µM (inactive) in the assay with LOX IMVI; 1.57 µM (inactive) in the assay on DU-145; 10.5 µM (inactive) in the assay with TK-10; 16.3 µM (inactive) in the assay with UACC-257; 2.74 µM in the assay on HCT-15; 0.883 µM (active) in the assay with SW-620. For the same compound, the GI50 was 2.81 µM (inactive) with NCI/ADR-RES and 0.603 µM (active) in the assay with HL-60.
Consider `C[C@]12CC[C@H](OC3OC(CO)C(O)C(O)C3O)C[C@H]1CC[C@@H]1[C@@H]2CC[C@]2(C)[C@@H](C3=CCOC3=O)CC[C@]12O` (some centres not stated) [ACTODIGIN], for which the GI50 was 6.64 µM (inactive) with UACC-62; > 100 µM (inactive) in the assay with BT-549; > 100 µM (inactive) with M14; > 50 µM (inactive) with SK-OV-3; 2.96 µM (inactive) with SR; 40.3 µM (inactive) in the assay with UO-31. Also, the GI50 in the assay on MDA-MB-435 was > 100 µM (inactive); in the assay on OVCAR-4 it was 41 µM (inactive); in the assay on MDA-N, > 100 µM (inactive); in the assay on KM-20L2, 3.55 µM (inactive); with LOX IMVI, 0.495 µM (active); in the assay with DU-145, > 100 µM (inactive). The GI50 is > 100 µM (inactive) in the assay with TK-10; 22.7 µM with HCT-15; 18.6 µM (inactive) with SW-620; 24.4 µM (inactive) in the assay with NCI/ADR-RES; 4.51 µM (inactive) in the assay on HL-60.
With `Cc1ccc(S(=O)(=O)CNC(=S)CCCC(=S)NCS(=O)(=O)c2ccc(C)cc2)cc1`, the GI50 with OVCAR-8 is > 100 µM (inactive); with UACC-62 it was 44.3 µM (inactive); in the assay with M14, > 100 µM (inactive); in the assay with SK-OV-3, > 100 µM (inactive); with SR, 32.7 µM (inactive); in the assay on UO-31, 35.2 µM (inactive). For the same compound, the GI50 in the assay on OVCAR-4 was > 100 µM (inactive); in the assay with OVCAR-3 it was 48.9 µM (inactive); with KM-20L2, > 100 µM (inactive); with LOX IMVI, 18.6 µM (inactive); in the assay with TK-10, > 100 µM (inactive); in the assay with UACC-257, > 100 µM (inactive). In addition, the GI50 in the assay with HCT-15 is 53.8 µM; with SW-620 it was 53.5 µM (inactive); with HL-60, 16.1 µM (inactive).

The values are drawn from ChEMBL document CHEMBL1201862, “PubChem BioAssay data set” (2004).
